# Patent US6892140B1, “Immunogenic cancer peptides and uses thereof” (Enteron, Inc., priority 2000, dated 2005)
# Entries after “also recorded” stand apart in the source; their conditions may differ. Ends that are not written are not given here.
# System: serum IgG antibodies from patients with squamous cell carcinoma and from controls
# Assay: Immunoassay 2: serum IgG specific for biotinylated peptide antigens, squamous cell carcinoma patients vs persons not known to have cancer
# Format: binding, human
# Conditions: 45 squamous cell carcinoma sera
# Method: Using immunoassay 2 (see Materials and Methods) the following results were obtained.
# Immunoassay Method 2: Used to Detect Serum IgA, IgD, IgE, IgG, and IgM Antibodies Specific for Individual Peptide Antigens
# NeutrAvidin^a conjugated paper disc, 6 mm.
# Serum diluent: 10 mM sodium phosphate, pH 7.20, with 150 MM sodium chloride, and 0.20 mg/mL sodium azide.
# NeutrAvidin^a coated white microtiter plate, stored in 10 mM Tris-HCl, pH 7.50, containing 600 mM sodium chloride and 0.2 mg/mL thimerosal.
# Plate blocking solution: 10 mM sodium phosphate, pH 7.20, containing 150 mM sodium chloride, 100 mg/mL Triton X-405, and 0.2 mg/mL thimerosal.
# Plate wash buffer: 20 mM Tris chloride, pH 7.4, containing 150 mM sodium chloride, 0.5 mg/mL Triton X-405 and 0.2 mg/mL thimerosal.
# Peptide solution: 0.06 μg/mL peptide dissolved in 20 mM Tris chloride, pH 7.4, containing 600 mM sodium chloride, 30 mg/mL polyethylene glycol 4000, 1 mM ethylenediaminetetraacetic acid, 1 mM ethylene glycol-bis(§-aminoethyl ether)N,N,N′,N′-tetraacetic acid, 0.5 mg/mL Triton X405 and 0.2 mg/mL thimerosal.
# Control peptide solution: 0.013 μg/mL control peptide dissolved in 20 mM Tris chloride, pH 7.4, containing 600 mM sodium chloride, 30 mg/mL polyethylene glycol 4000, 1 mM ethylenediaminetetraacetic acid, 1 mM ethylene glycol-bis(§-aminoethyl ether)N,N,N′,N′-tetraacetic acid, 0.5 mg/mL Triton X-405 and 0.2 mg/mL thimerosal.
# Conjugate solution: 0.100 μg/mL alkaline phosphatase conjugated polyclonal goat anti human IgG dissolved in 20 mM Tris-HCl, pH 7.40, with 600 mM sodium chloride, 30.0 mg/mL PEG-4000, 3.0 mg/mL BSA, 0.5 mg/mL Triton X-405 and 0.20 mg/mL thimerosal.
# Substrate solution: 25.2 μg/mL 4-methylumbelliferyl phosphate dissolved in 180 mM 2-amino-2-methyl-1-propanol, pH 9.50, containing 123 μM magnesium chloride.
# Serum preparation: • 1. Add 100 μL serum to 15 NeutrAvidin^a coated paper discs in a suitably sized test tube. • 2. Incubate with gentle mixing at ambient temperature for 16-20 hours. • 3. Add 7.900 mL of serum diluent and mix gently for 30 minutes. • 4. Vortex the tube gently to completely release the serum from the discs. • 5. Remove the treated serum from the discs and transfer it to a suitable storage tube. • 6. Store the treated serum at 4 EC.
# Assay procedure: • 1. Two days before assay, aspirate the storage solution from the NeutrAvidin^a coated white microtiter plate and add 200 μL plate blocking solution to each well. • 2. Cover the plate and incubate at ambient temperature for 16-20 hours. • 3. One day before assay. wash the blocked plate three times with plate wash buffer, approximately 275 μL per well per wash. […] Read the plate at 30 and 60 minutes in a fluorescence microtiter plate reader set at 365 nm excitation and 450 nm emission. […]
row,Substance,sera from squamous cell carcinoma patients with IgG antibody level above control mean background+2.5 SD
1,"rNvs: EGFR peptide (portion of SEQ ID NO: 67), deglycosylated asparagine N (RNVS; also: deglycosylated asparagine)",2 of 45
2,aemNgSk: TROP1 peptide with the amino acid sequence aemNgSk (AEMNGSK; not fully specified),6 of 45

# Same assay, conditions: control population
row,Substance,sera from persons not known to have cancer: IgG antibody level relative to control mean background+2.5 SD
1,"rNvs: EGFR peptide (portion of SEQ ID NO: 67), deglycosylated asparagine N (RNVS; also: deglycosylated asparagine)",below the mean background+2.5 standard deviations; also recorded: below the mean background plus 4 standard deviations
2,aemNgSk: TROP1 peptide with the amino acid sequence aemNgSk (AEMNGSK; not fully specified),one

# System: antibodies in sera from prostate cancer patients
# Assay: Prostate cancer serum test of cell surface protein peptides (Table 3)
# Format: binding, human
# Set-up: key: +: positive or negative reactivity between peptides representing modified peptide regions of cancer cell surface protein molecules with antibodies in sera from prostate cancer patients; −: positive or negative reactivity between peptides representing modified peptide regions of cancer cell surface protein molecules with antibodies in sera from prostate cancer patients
# Conditions: reactivity of peptide with antibodies in sera from prostate cancer patients
# Source text: Table 3 third column illustrates the positive or negative reactivity between peptides representing modified peptide regions of cancer cell surface protein molecules with antibodies in sera from prostate cancer patients. The presence or absence in prostate cancer cells of the 41 tested molecules is shown as + or − in column four.
# Sixth, employing the immunoassays disclosed herein, each biotinylated peptide is screened as an antigen against sera or other relevant biological fluids containing antibodies taken from one of the following groups: cancer patients, patients with benign lesions or inflammatory conditions, and healthy subjects. Peptides can also be screened using tumor-infiltrating lymphocytes or peripheral blood-born lymphocytes from cancer patients. Candidate peptides we consider cancer-specific or cancer-associated depend on whether they fit the following definitions.
row,Substance,Prostate Cancer Serum Test Result
1,knNht: Tested peptide of cell surface protein CD63 (KNNHT; also: biotin label at one end),−
2,nnNNss: Tested peptide of cell surface protein CD9 (NNNNSS; also: biotin label at one end),−
3,daNkt: Tested peptide of cell surface protein erbB-1 (DANKT; not fully specified),+
4,ekNdt: Tested peptide of cell surface protein integrin alpha (v) (EKNDT; not fully specified),−
5,drNht: Tested peptide of cell surface protein CD46 (DRNHT; not fully specified),−
6,deNit: Tested peptide of cell surface protein tgfr beta type II (DENIT; not fully specified),+
7,crNvs: Tested peptide of cell surface protein erbB-1 (CRNVS; not fully specified),−
8,ekNgs: Tested peptide of cell surface protein fgfr2 (EKNGS; not fully specified),−
9,meNkt: Tested peptide of cell surface protein integrin alpha 3 (MENKT; also: biotin label at one end),+
10,rmNit: Tested peptide of cell surface protein integrin alpha 3 (RMNIT; not fully specified),−
11,leNht: Tested peptide of cell surface protein integrin alpha 3 (LENHT; also: biotin label at one end),−
12,"qkNqt: Tested peptide of cell surface protein integrin alpha 9 (QKNQT; also: biotin label at one end, end not given here)",−
